Reference: article PMC4185360 (Emerging Microbes & Infections, 2014)
pIC50: −log10 of the molar value. Where “and” joins values, the source holds several entries; their conditions need not be identical. Equal values may be shown once. Where a name gives a salt, the structure may show the parent alone. Read-outs that look alike come from different tables or passages of the source.

Tests used:
EV71 [1] = assay: Antiviral potency assay, viral load by qRT-PCR in RD cells; type: cell-based; settings: for IC90: read-out: IC90, EV71 replication (viral load by qRT-PCR)
[2] = source not given; cited from earlier work
EV71 [3] = assay: Viral attachment assay (cell-virus adsorption at 4°C); type: cell-based; settings: Enterovirus A, incubated with cells and virus at 4°C, read-out: IC90, virus binding to the cell
poliovirus-1 (Sabin) = type: cell-based; settings: TCID50 reduction assay
CYP1A2 = biological target: T1, CYP1A2 (Homo sapiens, UniProt P05177); assay: in vitro; settings: microsomes
T1 sequence (P05177 1-516): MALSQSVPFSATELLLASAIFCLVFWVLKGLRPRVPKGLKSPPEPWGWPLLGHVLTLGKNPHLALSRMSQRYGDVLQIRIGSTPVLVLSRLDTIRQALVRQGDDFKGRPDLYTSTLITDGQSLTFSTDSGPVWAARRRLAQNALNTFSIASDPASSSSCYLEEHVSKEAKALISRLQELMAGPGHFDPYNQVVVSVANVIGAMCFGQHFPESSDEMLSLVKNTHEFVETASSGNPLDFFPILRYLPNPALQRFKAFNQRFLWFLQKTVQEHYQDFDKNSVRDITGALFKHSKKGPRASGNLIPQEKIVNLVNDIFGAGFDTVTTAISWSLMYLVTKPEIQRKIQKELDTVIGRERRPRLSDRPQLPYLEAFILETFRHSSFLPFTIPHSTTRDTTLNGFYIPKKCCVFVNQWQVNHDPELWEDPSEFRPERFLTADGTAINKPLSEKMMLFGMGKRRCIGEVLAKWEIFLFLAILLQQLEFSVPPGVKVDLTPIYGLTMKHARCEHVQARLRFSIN

EV71 FY-23 = assay: In vivo anti-EV71 efficacy in adult rhesus monkeys; settings: 50 mg/kg i.v. four times, between days 6 and 9 post-infection
CYP2D6 [4] = biological target: T2, CYP2D6 (Homo sapiens, UniProt P10635); assay: in vitro; settings: human microsomes, probe marker substrate cocktail, O-demethylation (CYP2D6)
coxsackievirus A16 = type: cell-based, Coxsackie virus A16 (strain shzh05-1); settings: 50 µM
EV71 particles = assay: STD NMR assay of binding to EV71 particles; settings: inactivated, purified EV71; molar ratio 1:100
[5] = Cynomolgus monkey plasma pharmacokinetics; settings: male, iv, 4.37 mg/kg; for AUC(0-inf): AUC0-inf; for AUC(0-t): AUC0-last; for clearance: Cl; for Vd: Vdss
CYP2D6 [6] = biological target: T2, CYP2D6; assay: biochemical
CYP3A4 = CYP3A4 (Homo sapiens, UniProt P08684); assay: in vitro; settings: human microsomes, probe marker substrate cocktail, 1′-hydroxylation (CYP3A4)
[7] = tested on: mouse-adapted EV71 strain MP10; assay: In vivo anti-EV71 efficacy in 10-day-old ICR mice; settings: lethal dose EV71 MP10
CYP2C9 [8] = biological target: T3, CYP2C9 (Homo sapiens, UniProt P11712); assay: biochemical
EV71 [9] = assay: Time-of-addition assay, single round viral replication in RD cells; type: cell-based; settings: 10 µM
Protocol: Single round viral replication is get by infecting RD cell at multiplicity of infection of 5, collecting at 16 h post infection, and testing culture supernatant and intracellular RNA at 16 h post infection.
(A) Time of addition assay. The viral load in supernatant represents the means±s.e.m. of results of experiment with three replicates, and the intracellular viral load represents the result of a single test. […] Data represents the means±s.e.m. of results of experiment with three replications.

[10] = cited from earlier work
CYP2C9 [11] = biological target: T3, CYP2C9; assay: in vitro; settings: microsomes
[12] = Enterovirus A, EV71 isolate Fuyang573, RD cells
[13] = mean of 3 monkeys, 4.37 mg/kg i.v. bolus
[14] = monkey P101, 4.37 mg/kg i.v. bolus
[15] = monkey P102, 4.37 mg/kg i.v. bolus
[16] = monkey P103, 4.37 mg/kg i.v. bolus

T2 sequence (P10635 whole entry): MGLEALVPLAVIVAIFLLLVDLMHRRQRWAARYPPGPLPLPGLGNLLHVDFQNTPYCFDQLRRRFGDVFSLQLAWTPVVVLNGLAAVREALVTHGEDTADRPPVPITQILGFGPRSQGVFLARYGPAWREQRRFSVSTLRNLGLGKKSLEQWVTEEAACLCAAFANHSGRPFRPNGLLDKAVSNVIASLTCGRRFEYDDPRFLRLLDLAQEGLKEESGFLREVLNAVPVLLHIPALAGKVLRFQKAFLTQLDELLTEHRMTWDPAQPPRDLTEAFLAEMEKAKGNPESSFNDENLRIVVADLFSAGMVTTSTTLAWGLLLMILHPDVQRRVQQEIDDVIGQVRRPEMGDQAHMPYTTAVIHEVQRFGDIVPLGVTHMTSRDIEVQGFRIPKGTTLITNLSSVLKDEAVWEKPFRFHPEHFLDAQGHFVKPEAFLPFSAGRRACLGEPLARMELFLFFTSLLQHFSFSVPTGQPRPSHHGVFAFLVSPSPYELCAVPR
CYP3A4, sequence (P08684 whole entry): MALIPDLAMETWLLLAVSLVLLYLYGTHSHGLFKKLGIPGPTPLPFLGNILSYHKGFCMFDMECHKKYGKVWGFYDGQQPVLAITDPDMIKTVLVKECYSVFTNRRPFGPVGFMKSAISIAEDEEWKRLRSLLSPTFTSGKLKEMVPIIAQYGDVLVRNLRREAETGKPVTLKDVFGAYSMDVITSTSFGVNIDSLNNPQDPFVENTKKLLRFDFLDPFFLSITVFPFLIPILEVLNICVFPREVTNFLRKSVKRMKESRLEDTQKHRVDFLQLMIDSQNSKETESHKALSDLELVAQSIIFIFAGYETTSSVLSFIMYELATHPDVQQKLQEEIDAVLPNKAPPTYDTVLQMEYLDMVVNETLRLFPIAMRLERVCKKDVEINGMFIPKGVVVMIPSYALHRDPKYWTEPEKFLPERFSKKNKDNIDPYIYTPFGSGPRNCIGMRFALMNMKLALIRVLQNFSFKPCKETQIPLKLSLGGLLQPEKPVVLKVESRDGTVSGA
T3 sequence (P11712 whole entry): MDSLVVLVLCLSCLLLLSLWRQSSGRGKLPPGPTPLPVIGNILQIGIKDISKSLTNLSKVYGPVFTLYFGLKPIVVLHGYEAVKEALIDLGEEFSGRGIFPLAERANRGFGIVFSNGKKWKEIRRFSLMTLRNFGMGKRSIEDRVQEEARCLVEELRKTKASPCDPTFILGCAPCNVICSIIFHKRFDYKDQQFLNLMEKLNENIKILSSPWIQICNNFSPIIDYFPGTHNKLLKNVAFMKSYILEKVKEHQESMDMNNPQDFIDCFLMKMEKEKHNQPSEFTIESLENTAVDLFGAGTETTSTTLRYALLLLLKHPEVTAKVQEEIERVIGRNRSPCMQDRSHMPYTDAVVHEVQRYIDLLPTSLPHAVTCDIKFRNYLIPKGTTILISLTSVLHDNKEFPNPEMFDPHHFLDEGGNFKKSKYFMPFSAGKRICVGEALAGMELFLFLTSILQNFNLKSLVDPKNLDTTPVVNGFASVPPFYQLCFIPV

With `Cc1nc(/N=N/c2cc(S(=O)(=O)O)ccc2S(=O)(=O)O)c(COP(=O)(O)O)c(C=O)c1O` [iso-PPADS, pyridoxalphosphate-6-azophenyl-2′,5′-disulfonic acid tetrasodium salt] the IC90 (EV71 [1]; [12]) was 6.4 µM.

In the case of `Cc1ccc(C(=O)Nc2ccc(S(=O)(=O)O)c3cc(S(=O)(=O)O)cc(S(=O)(=O)O)c23)cc1NC(=O)c1cccc(NC(=O)Nc2cccc(C(=O)Nc3cc(C(=O)Nc4ccc(S(=O)(=O)O)c5cc(S(=O)(=O)O)cc(S(=O)(=O)O)c45)ccc3C)c2)c1` [suramin, Suramin sodium salt], the serum protein binding [2] is given as “high levels”, the IC90 (EV71 [3]) is given as 6.17 µM and the “inhibition of poliovirus-1 (Sabin)” value (poliovirus-1 (Sabin)) is given as “not inhibited”. It also gave an inhibition at 10 min, 10 µM (CYP1A2) of 40%, an inhibition at 10 min, 30 µM (CYP1A2) of 70% and an inhibition at 10 min, 100 µM (CYP1A2) of 89%. The “viral genomic RNA in serum” value (EV71 FY-23) was < 20 copies of viral genomic RNA/mL, the inhibition at 10 min, 10 µM (CYP2D6 [4]) was 7% and the inhibition at 10 min, 30 µM (CYP2D6 [4]) was 40%. The inhibition at 10 min, 100 µM (CYP2D6 [4]) was 49%, the “reduction of coxsackievirus A16 replication” value (coxsackievirus A16) was 10^6 TCID50/mL and the “STD NMR signals with EV71 particles” value (EV71 particles) was “strong STD NMR signals”. For the same compound, the AUC(0-inf) [5, 13] was 2330 µg·h/mL, the AUC(0-inf) [5, 14] was 1960 µg·h/mL and the AUC(0-inf) [5, 15] was 2400 µg·h/mL. The AUC(0-inf) [5, 16] was 2620 µg·h/mL, the AUC(0-t) [5, 13] was 1800 µg·h/mL and the AUC(0-t) [5, 14] was 1660 µg·h/mL. It also gave an AUC(0-t) [5, 15] of 1810 µg·h/mL, an AUC(0-t) [5, 16] of 1930 µg·h/mL and a C0 ([5]; C0, mean of 3 monkeys, 4.37 mg/kg i.v. bolus) of 128 µg/mL. The C0 ([5]; C0, monkey P101, 4.37 mg/kg i.v. bolus) was 143 µg/mL, the C0 ([5]; C0, monkey P102, 4.37 mg/kg i.v. bolus) was 96.3 µg/mL and the C0 ([5]; C0, monkey P103, 4.37 mg/kg i.v. bolus) was 146 µg/mL. The clearance [5, 13] was 1.9 mL/h/kg, the clearance [5, 14] was 2.23 mL/h/kg and the clearance [5, 15] was 1.82 mL/h/kg. For the same compound, the clearance [5, 16] was 1.67 mL/h/kg, the Cmax [5, 13] was 142 µg/mL and the Cmax [5, 14] was 169 µg/mL. For the same compound, the Cmax [5, 15] was 117 µg/mL, the Cmax [5, 16] was 141 µg/mL and the half-life ([5]; T1/2, mean of 3 monkeys, 4.37 mg/kg i.v. bolus) was 104 h. For the same compound, the half-life ([5]; T1/2, monkey P101, 4.37 mg/kg i.v. bolus) was 69.1 h, the half-life ([5]; T1/2, monkey P102, 4.37 mg/kg i.v. bolus) was 112 h and the half-life ([5]; T1/2, monkey P103, 4.37 mg/kg i.v. bolus) was 130 h. For the same compound, the Tmax [5, 13] was 3.6 min, the Tmax [5, 14] was 4.8 min and the Tmax [5, 15] was 4.8 min. For the same compound, the Tmax [5, 16] was 1.8 min, the Vd [5, 13] was 0.199 L/kg and the Vd [5, 14] was 0.176 L/kg. For the same compound, the Vd [5, 15] was 0.212 L/kg, the Vd [5, 16] was 0.21 L/kg and the IC50 (CYP2D6 [6]) was > 100 µM (2×) and 45.5 µM. It also gave an inhibition at 10 min, 10 µM (CYP3A4) of 5%, an inhibition at 10 min, 30 µM (CYP3A4) of 16% and an inhibition at 10 min, 100 µM (CYP3A4) of 34%. The survival rate ([7]; 50 mg/kg i.p. twice daily for 7 days) was 30%, the decrease of mortality ([7]; mice) was 30% and the pIC50 (CYP2C9 [8]) was < 4.00. The “effect on viral replication” value (EV71 [9]; added after adsorption) was “no effect”, the “decrease of viral replication” value (EV71 [9]; added at the virus-cell adsorption stage) was > 1 log10 and the half-life [10] was “long”. For the same compound, the inhibition at 10 min, 10 µM (CYP2C9 [11]) was 0%, the inhibition at 10 min, 30 µM (CYP2C9 [11]) was 8% and the inhibition at 10 min, 100 µM (CYP2C9 [11]) was 32%.

For heparin sodium salt, the “IC90, EV71 replication” value (EV71 [1]) was 24.3 µg/mL.

Work on Sucralfate sodium yielded an IC90 (EV71 [1]; EV71 isolate Fuyang573, RD cells) of 3.3 µM.

With `Cc1nc(/N=N/c2ccc(S(=O)(=O)O)cc2S(=O)(=O)O)c(COP(=O)(O)O)c(C=O)c1O` [PPADS, pyridoxal phosphate-6-azo (benzene-2,4-disulfonic acid) tetrasodium salt hydrate] the IC90 (EV71 [1]; [12]) was 7 µM.

In the case of `O=C(Nc1cc(C(=O)Nc2ccc(S(=O)(=O)O)cc2S(=O)(=O)O)cc(C(=O)Nc2ccc(S(=O)(=O)O)cc2S(=O)(=O)O)c1)Nc1cc(C(=O)Nc2ccc(S(=O)(=O)O)cc2S(=O)(=O)O)cc(C(=O)Nc2ccc(S(=O)(=O)O)cc2S(=O)(=O)O)c1` [NF 449, 4,4′,4″,4″′-[carbonylbis(imino-5,1,3-benzenetriyl-bis(carbonylimino))]tetrakis-1,3-benzenedisulfonic acid, octasodium salt], the IC90 (EV71 [1]; [12]) was 0.9 µM.

Compound `O=C(Nc1cccc(C(=O)Nc2ccc(S(=O)(=O)O)c3cc(S(=O)(=O)O)cc(S(=O)(=O)O)c23)c1)Nc1cccc(C(=O)Nc2ccc(S(=O)(=O)O)c3cc(S(=O)(=O)O)cc(S(=O)(=O)O)c23)c1` [NF 023, 8,8′-[carbonylbis(imino-3,1-phenylenecarbonylimino)]bis-1,3,5-naphthalene-trisulphonic acid, hexasodium salt] has an IC90 (EV71 [1]; [12]) of 8.9 µM.

Compound `O=S(=O)(O)c1cc(N=C=S)ccc1/C=C/c1ccc(N=C=S)cc1S(=O)(=O)O` [DIDS, 4,4′-diisothiocyanatostilbene-2,2′-disulfonic acid disodium salt] has an IC90 (EV71 [1]; Enterovirus A, EV71, RD) of 10.3 µM.
